Source: the supplement of paper PMC10307832

Tests used:
Test in all cases: relative viability (nuclei count vs DMSO), 5 days (fraction); higher = more cells survive
Carboplatin + AZD7762 = compound: C1CC(C1)(C(=O)O)C(=O)O.[NH2-].[NH2-].[Pt+2] [Carboplatin] + NC(=O)Nc1cc(-c2cccc(F)c2)sc1C(=O)N[C@H]1CCCNC1 [AZD7762] (partner 0.2 µM)
In short: (§1)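 Relative viability divides the nuclei count in treated wells by that in vehicle wells. Lung cancer cell lines were seeded in 1536-well plates, dosed by pin tool the next day, and fixed and stained after 5 days in one step with final 0.05% Triton X-100, 1% formaldehyde and 1 ug/ml Hoechst. Dosing was a single drug or a fixed anchor-drug dose plus five library-drug doses (not always all listed) in √10 steps, and values are medians of duplicate plates imaged at 4×.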

GSK126 + Palbociclib = compound: CC[C@H](C)N1C=C(C2=C(C=C(C=C21)C3=CN=C(C=C3)N4CCNCC4)C(=O)NCC5=C(C=C(NC5=O)C)C)C [GSK126] + CC(=O)c1c(C)c2cnc(Nc3ccc(N4CCNCC4)cn3)nc2n(C2CCCC2)c1=O [Palbociclib] (partner 0.5 µM)
In short: as §1

GSK126 + Linsitinib = compound: CC[C@H](C)N1C=C(C2=C(C=C(C=C21)C3=CN=C(C=C3)N4CCNCC4)C(=O)NCC5=C(C=C(NC5=O)C)C)C [GSK126] + C[C@]1(O)C[C@@H](c2nc(-c3ccc4ccc(-c5ccccc5)nc4c3)c3c(N)nccn32)C1 [Linsitinib] (partner 1 µM)
In short: as §1

MLN4924 + Palbociclib = compound: NS(=O)(=O)OC[C@@H]1C[C@@H](n2ccc3c(N[C@H]4CCc5ccccc54)ncnc32)C[C@@H]1O [MLN4924] + CC(=O)c1c(C)c2cnc(Nc3ccc(N4CCNCC4)cn3)nc2n(C2CCCC2)c1=O [Palbociclib] (partner 0.5 µM)
In short: as §1

Cell Line	relative viability (Carboplatin + AZD7762; first compound 0.08 µM)	relative viability (Carboplatin + AZD7762; first compound 0.253 µM)	relative viability (Carboplatin + AZD7762; first compound 0.8 µM)	relative viability (Carboplatin + AZD7762; first compound 2.53 µM)	relative viability (Carboplatin + AZD7762; first compound 8 µM)	relative viability (GSK126 + Palbociclib; first compound 0.08 µM)	relative viability (GSK126 + Palbociclib; first compound 0.253 µM)	relative viability (GSK126 + Palbociclib; first compound 0.8 µM)	relative viability (GSK126 + Palbociclib; first compound 2.53 µM)	relative viability (GSK126 + Palbociclib; first compound 8 µM)	relative viability (GSK126 + Linsitinib; first compound 0.08 µM)	relative viability (GSK126 + Linsitinib; first compound 0.253 µM)	relative viability (GSK126 + Linsitinib; first compound 0.8 µM)	relative viability (GSK126 + Linsitinib; first compound 2.53 µM)	relative viability (GSK126 + Linsitinib; first compound 8 µM)	relative viability (MLN4924 + Palbociclib; first compound 0.04 µM)	relative viability (MLN4924 + Palbociclib; first compound 0.1265 µM)	relative viability (MLN4924 + Palbociclib; first compound 0.4 µM)	relative viability (MLN4924 + Palbociclib; first compound 1.265 µM)	relative viability (MLN4924 + Palbociclib; first compound 4 µM)
201T	0.643	0.608	0.612	0.482	0.423	0.442	0.356	0.378	0.387	0.382	1.04	1.11	1.06	1.07	1.18	0.395	0.353	0.354	0.219	0.26
A549											0.687	0.524	0.541	0.594	0.58					
A-427	0.75	0.759	0.778	0.762	0.795	0.534	0.519	0.517	0.5	0.491	1.19	1.19	1.09	1.17	1.11	0.381	0.339	0.321	0.29	0.282
ABC-1		0.674	0.91	0.77	0.66	0.768	0.735	0.675	0.98	0.675	0.83	1.03	0.67	0.703	0.755	1	1.02	0.695	0.316	0.498
BEN	0.912	0.792	0.725	0.723	0.818	0.482	0.41	0.5	0.506	0.473	1.19	0.953	0.813	0.893	0.653	0.402	0.411	0.374	0.285	0.222
CAL-12T	0.848	0.579	0.674	0.555	0.548	0.491	0.458	0.515	0.416	0.41	0.964	0.94	0.78	0.918	0.868	0.403	0.254	0.161	0.122	0.182
COR-L23						0.307	0.265	0.259	0.279	0.352	1.06	1.12	0.918	0.912	0.99	0.267	0.3	0.215	0.0984	0.105
COR-L 105						0.42	0.423	0.421	0.377	0.415	1.01	1.06	0.729	0.997	0.858	0.414	0.395	0.337	0.321	0.34
Calu-6											1.14	0.97		0.989	1.07					
ChaGo-K-1	0.935	0.866	0.891	0.817	0.639	0.93	0.905	0.914	1.04	0.914						0.75	0.419	0.365	0.184	0.159
EBC-1											1.07	1.02	1	0.74	0.909					
EKVX	0.743	0.757	0.737	0.739	0.537	0.455	0.366	0.38	0.405	0.363	1.04	1.12	0.918	1.01	0.885	0.389	0.362	0.334	0.188	0.142
EMC-BAC-2	1.15	0.993	1.11	1.07	0.973	0.519	0.515	0.516	0.503	0.499	0.798	0.841	0.771	0.824	0.839	0.559	0.431	0.386	0.265	0.312
EPLC-272H	0.308	0.218	0.309	0.208	0.208	0.344	0.324	0.33	0.374	0.301	1.4	1.16	1.06	1.17	1.23	0.29	0.281	0.102	0.232	0.181
H3255	1.08	0.917	0.852	0.832	0.734	0.291	0.316	0.319	0.296	0.31	0.99	0.96	0.945	0.893	0.874	0.299	0.283	0.259	0.308	0.274
HARA	0.279	0.344	0.265	0.279	0.383	0.325	0.238	0.249	0.296	0.279	1.01	0.898	0.872	0.976	0.836	0.324	0.233	0.169	0.0893	0.147
HCC-15	1.17	1.22	1.16	1.33	0.644	0.759	0.855	0.692	0.573	0.671	0.927	0.683	0.891	0.957	0.827	0.477	0.172	0.196	0.0952	0.101
IA-LM											0.685	0.729	0.737	0.365	0.614					

Cell Line	relative viability (Carboplatin + AZD7762; first compound 0.08 µM)	relative viability (Carboplatin + AZD7762; first compound 0.253 µM)	relative viability (Carboplatin + AZD7762; first compound 0.8 µM)	relative viability (Carboplatin + AZD7762; first compound 2.53 µM)	relative viability (Carboplatin + AZD7762; first compound 8 µM)	relative viability (GSK126 + Palbociclib; first compound 0.08 µM)	relative viability (GSK126 + Palbociclib; first compound 0.253 µM)	relative viability (GSK126 + Palbociclib; first compound 0.8 µM)	relative viability (GSK126 + Palbociclib; first compound 2.53 µM)	relative viability (GSK126 + Palbociclib; first compound 8 µM)	relative viability (GSK126 + Linsitinib; first compound 0.08 µM)	relative viability (GSK126 + Linsitinib; first compound 0.253 µM)	relative viability (GSK126 + Linsitinib; first compound 0.8 µM)	relative viability (GSK126 + Linsitinib; first compound 2.53 µM)	relative viability (GSK126 + Linsitinib; first compound 8 µM)	relative viability (MLN4924 + Palbociclib; first compound 0.04 µM)	relative viability (MLN4924 + Palbociclib; first compound 0.1265 µM)	relative viability (MLN4924 + Palbociclib; first compound 0.4 µM)	relative viability (MLN4924 + Palbociclib; first compound 1.265 µM)	relative viability (MLN4924 + Palbociclib; first compound 4 µM)
NCI-H520						0.21	0.233	0.221	0.209	0.268	1.12	1.03	0.915	1.07	1.11	0.224	0.226	0.153	0.145	0.156
NCI-H522	0.783	0.74	0.876	0.908	0.728	1.09	0.772	0.991	1.06	1.07						0.835	0.693	0.741	0.348	0.37
NCI-H596	1.25	1.18	1.09	0.885	0.693						1.02	0.99	1.03	1.16	1.15					
NCI-H661						0.43	0.419	0.414	0.43	0.431	0.531	0.561	0.519	0.719	0.497	0.421	0.427	0.34	0.292	0.366
NCI-H1299											0.986	0.998	1	0.93	0.964					
NCI-H1563											1.2	1.11	1.16	1.12	1.26					
NCI-H1648	0.662	0.62	0.538	0.696	0.539	0.291	0.357	0.275	0.288	0.293						0.256	0.231	0.371	0.259	0.302
NCI-H1650						0.393	0.359	0.37	0.377	0.32						0.286	0.221	0.19	0.131	0.136
NCI-H1703	0.144	0.13	0.101		0.122						1.25	0.708	0.852	0.82	1.5					
NCI-H2009						0.183	0.176	0.181	0.257	0.322	1.3	1.18	1.27	1.18	1.2	0.0712	0.0898	0.0671	0.0534	0.0501
NCI-H2023						0.505	0.442	0.349	0.442	0.399	0.778	0.679	0.644	0.757	0.755	0.496	0.366	0.207	0.0822	0.0604
NCI-H2170	0.944	0.934	0.995	0.724	0.385	0.433	0.388	0.385	0.397	0.394						0.392	0.242	0.253	0.109	0.124
NCI-H2228						0.985	0.519	0.713	0.674	0.967	1.11	0.681	0.755	0.708	0.542	0.743	0.891	0.277	0.188	0.13
NCI-H2342	0.57	0.595	0.55	0.439	0.484	0.566	0.575	0.508	0.572	0.522						0.53	0.575	0.591	0.635	0.449
SK-LU-1						0.402	0.364	0.412	0.389	0.414	1.31	1.07	1.11	1.44	1.25	0.467	0.43	0.253	0.195	0.202
SK-MES-1						0.384	0.324	0.337	0.329	0.35	1.12	1.07	0.985	0.981	1.06	0.294	0.207	0.225	0.128	0.203
SW 900	0.651	0.689	0.531	0.533	0.542	0.659	0.514	0.518	0.61	0.585							0.439	0.388	0.231	0.231
SW 1573						0.496	0.472	0.435	0.361	0.403	0.813	0.761	0.743	0.816	0.746	0.375	0.306	0.155	0.0802	0.0896
